pEC50, pIC50: −log10 of the molar value. Entries after “also recorded” stand apart in the source; their conditions may differ. Read-outs that look alike come from different tables or passages of the source. Each block holds one compound with its values, some of them ahead of it.
How the values were obtained:
[1] = over 8 weeks; cited from earlier work
[2] = tested on: intestinal mucosal ulcers; test: Intestinal mucosal healing in vivo (model not given); parameters: species or system mice; details: mouse
[3] = tested on: Caco-2 cells; test: Caco-2 monolayer wound closure assay; type: cell-based, human; details: for monolayer wound closure / epithelial sheet migration (in words): in vitro, 24 hours
Protocol: Caco-2 cells were seeded at 75-80% confluence into collagen I coated 6-well plates. When the cells reached 100% confluence, wounds were made in the monolayers with non-barrier autoclaved tips. Wound images were captured using an inverted light microscope (OLYMPUS CK2, Center Valley, PA) at 0 hours and 24 hours after treatment with DMSO or small molecules. Wound areas were measured with Image J software.

[4] = molecular target: T1, Src (Homo sapiens, UniProt P12931); test: Src activation in intact cells; type: cell-based
T1 construct: endogenous in cells; host or cells: Caco-2
T1 sequence (P12931 whole entry): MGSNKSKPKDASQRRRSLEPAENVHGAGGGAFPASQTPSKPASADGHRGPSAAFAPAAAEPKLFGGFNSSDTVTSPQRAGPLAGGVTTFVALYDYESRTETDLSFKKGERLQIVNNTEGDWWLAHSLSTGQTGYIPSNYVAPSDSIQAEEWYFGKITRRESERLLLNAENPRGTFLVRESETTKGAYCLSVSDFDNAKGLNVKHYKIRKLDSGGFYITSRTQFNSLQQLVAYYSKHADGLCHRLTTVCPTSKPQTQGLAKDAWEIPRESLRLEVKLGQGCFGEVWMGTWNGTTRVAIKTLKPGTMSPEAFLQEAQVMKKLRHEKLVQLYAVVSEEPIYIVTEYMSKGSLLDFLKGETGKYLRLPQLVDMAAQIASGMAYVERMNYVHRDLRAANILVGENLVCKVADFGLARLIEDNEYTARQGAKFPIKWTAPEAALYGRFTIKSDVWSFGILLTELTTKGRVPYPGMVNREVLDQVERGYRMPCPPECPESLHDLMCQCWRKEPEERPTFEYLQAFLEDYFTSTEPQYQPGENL

[5] = molecular target: T2, Pyk2 (Homo sapiens, UniProt Q14289); test: Pyk2 activation in intact cells; type: cell-based
T2 construct: endogenous in cells; host or cells: Caco-2
T2 sequence (Q14289 whole entry): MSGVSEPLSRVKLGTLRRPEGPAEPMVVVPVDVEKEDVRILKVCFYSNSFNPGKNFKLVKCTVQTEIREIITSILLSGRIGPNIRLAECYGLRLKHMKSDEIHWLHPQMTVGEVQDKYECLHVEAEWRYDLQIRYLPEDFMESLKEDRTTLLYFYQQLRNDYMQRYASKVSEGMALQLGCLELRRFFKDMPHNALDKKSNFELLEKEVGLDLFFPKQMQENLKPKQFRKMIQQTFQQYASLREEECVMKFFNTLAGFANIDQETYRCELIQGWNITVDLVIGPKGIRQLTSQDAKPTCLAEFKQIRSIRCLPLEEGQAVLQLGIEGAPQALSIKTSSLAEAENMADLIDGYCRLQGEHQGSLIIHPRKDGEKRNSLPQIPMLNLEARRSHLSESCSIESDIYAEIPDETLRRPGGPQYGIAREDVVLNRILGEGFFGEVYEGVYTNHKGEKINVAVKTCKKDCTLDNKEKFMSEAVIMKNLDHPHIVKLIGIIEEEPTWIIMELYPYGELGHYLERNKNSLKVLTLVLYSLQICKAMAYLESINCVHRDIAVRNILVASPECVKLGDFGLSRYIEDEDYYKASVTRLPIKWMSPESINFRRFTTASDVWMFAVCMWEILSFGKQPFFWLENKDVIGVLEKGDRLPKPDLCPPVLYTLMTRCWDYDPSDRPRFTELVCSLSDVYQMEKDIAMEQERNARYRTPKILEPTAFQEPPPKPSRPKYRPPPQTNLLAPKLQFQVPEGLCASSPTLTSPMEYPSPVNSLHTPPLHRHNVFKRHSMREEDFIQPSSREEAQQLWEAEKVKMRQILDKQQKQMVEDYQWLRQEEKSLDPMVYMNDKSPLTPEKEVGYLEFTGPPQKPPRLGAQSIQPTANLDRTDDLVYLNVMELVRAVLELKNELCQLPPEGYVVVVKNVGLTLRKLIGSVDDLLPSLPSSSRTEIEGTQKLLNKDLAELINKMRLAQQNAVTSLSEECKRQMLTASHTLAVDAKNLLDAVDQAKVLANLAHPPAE

[6] = molecular target: T3, FAK (Homo sapiens, UniProt Q05397); test: Cell-based FAK-Tyr-397 activation (Western blot, Caco-2 cells); details: for FAK activation / FAK-Tyr-397 phosphorylation (in words): vs. DMSO vehicle control; for FAK-Tyr-397/FAK fold change: Cell-based FAK-Tyr-397 activation
T3 construct: endogenous in cells; host or cells: Caco-2 (human, ATCC)
T3 sequence (Q05397 whole entry): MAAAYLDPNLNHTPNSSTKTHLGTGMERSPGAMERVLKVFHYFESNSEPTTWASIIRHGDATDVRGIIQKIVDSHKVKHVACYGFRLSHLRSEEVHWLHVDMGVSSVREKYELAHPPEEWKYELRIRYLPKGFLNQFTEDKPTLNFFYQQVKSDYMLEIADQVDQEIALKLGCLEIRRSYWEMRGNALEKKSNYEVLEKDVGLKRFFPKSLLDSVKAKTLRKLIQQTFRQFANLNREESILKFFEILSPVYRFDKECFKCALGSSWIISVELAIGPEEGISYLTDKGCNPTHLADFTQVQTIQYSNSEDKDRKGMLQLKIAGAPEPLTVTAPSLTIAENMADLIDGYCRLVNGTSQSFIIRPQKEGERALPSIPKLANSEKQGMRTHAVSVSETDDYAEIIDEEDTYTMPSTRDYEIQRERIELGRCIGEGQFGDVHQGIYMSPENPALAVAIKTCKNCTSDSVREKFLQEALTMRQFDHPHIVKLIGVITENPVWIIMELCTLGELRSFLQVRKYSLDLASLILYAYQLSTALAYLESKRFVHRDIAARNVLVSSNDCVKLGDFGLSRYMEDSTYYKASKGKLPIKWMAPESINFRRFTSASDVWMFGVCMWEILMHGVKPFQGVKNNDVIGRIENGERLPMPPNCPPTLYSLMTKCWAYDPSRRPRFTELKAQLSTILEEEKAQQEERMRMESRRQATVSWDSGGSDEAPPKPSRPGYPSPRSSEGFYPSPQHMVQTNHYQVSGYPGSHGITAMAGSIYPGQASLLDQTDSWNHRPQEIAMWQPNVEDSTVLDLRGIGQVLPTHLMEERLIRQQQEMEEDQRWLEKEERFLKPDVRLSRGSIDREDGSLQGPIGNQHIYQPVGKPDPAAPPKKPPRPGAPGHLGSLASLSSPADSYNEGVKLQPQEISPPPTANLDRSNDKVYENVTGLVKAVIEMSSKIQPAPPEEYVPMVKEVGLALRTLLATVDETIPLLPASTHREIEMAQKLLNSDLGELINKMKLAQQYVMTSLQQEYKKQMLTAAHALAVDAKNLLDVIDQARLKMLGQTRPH
Protocol: Human Caco-2 cells were from ATCC (Manassas, VA) and maintained in Dulbecco's Modified Essential Eagle's Medium supplemented with 10% FBS as described by us previously 25. 80-90% confluent Caco-2 cells were seeded into cell culture plates pacificated with 1% heat inactivated bovine serum albumin to prevent adhesion and avoid adhesion-associated background FAK activation. Suspended cells were then treated with DMSO (0.1%) or small molecules for 1 hour before harvesting for Western blotting.
Cells were lysed and protein concentration was determined via bicinchoninic acid protein assay (Thermo Fisher, Rockford, IL). […] Images were taken using a LICOR-Odyssey-Fc imaging system (LI-COR Biosciences, Lincoln, NE).

[7] = mouse, in vivo; for course of plasma levels after enteral dosing (in words): 10 mg/kg
[8] = molecular target: CYP 2C19 (Homo sapiens, UniProt P33261); test: CYP 2C19 inhibition; type: in vitro ADME
CYP 2C19, sequence (P33261 whole entry, canonical isoform): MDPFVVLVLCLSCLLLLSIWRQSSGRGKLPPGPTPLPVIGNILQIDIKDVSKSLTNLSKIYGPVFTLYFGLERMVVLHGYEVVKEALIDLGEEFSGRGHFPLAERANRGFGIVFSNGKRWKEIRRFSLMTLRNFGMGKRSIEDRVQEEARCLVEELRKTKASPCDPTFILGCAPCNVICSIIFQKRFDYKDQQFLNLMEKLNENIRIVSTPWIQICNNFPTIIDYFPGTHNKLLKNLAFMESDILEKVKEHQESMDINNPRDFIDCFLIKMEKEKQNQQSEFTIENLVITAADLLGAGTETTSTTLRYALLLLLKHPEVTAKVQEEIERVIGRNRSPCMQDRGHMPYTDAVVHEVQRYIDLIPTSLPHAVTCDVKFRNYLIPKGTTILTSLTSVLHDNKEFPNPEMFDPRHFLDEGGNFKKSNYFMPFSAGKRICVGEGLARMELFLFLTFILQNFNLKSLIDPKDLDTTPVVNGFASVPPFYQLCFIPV
Excerpt: (§1) The most successful molecules underwent in vitro ADMET assays, including mouse and human metabolic stability, solubility (pH 7.4), Caco-2 (permeability), and log D determination. We will evaluate lead candidates for drug-like properties, including aqueous solubility (PBS buffer, pH 7.4), pKa, lipophilicity, chemical stability at pH 1 (the pH of the stomach), pH 6 (small intestine), A-B partitioning (octanol-PBS buffer, pH 7.4), liver microsomal stability as an indication of potential first-pass metabolism (microsomes from mouse and humans), substrate potential for isoforms of human P450 such as CYP3A4, cell permeability (Caco-2 cells), hERG toxicity (cell lines), mutagenesis, and plasma protein binding (mouse & human). […]. Computed physical properties that correlate with good oral bioavailability and cell permeability will be calculated for new compounds throughout the optimization process and will […] also influence lead compound selection as will ligand efficiency (LE) and lipophilic efficiency (LLE). Molecules will be administered by gavage to mice at 30 mg/kg, and we will measure plasma levels at 2 and 4 hours. The most successful molecules in this regard (with the highest levels at 2 and 4 hours) may be further modified by developing combinations of modifications at different parts of the molecule.

[9] = in vivo; details: mouse
[10] = tested on: IMR-90 human pulmonary fibroblasts; test: Cytotoxicity in IMR-90 cells; type: cell-based; details: for Cytotoxicity (LD50): IMR90
[11] = molecular target: hERG (Homo sapiens, UniProt Q12809); test: hERG toxicity; type: cell-based
hERG, sequence (Q12809 whole entry): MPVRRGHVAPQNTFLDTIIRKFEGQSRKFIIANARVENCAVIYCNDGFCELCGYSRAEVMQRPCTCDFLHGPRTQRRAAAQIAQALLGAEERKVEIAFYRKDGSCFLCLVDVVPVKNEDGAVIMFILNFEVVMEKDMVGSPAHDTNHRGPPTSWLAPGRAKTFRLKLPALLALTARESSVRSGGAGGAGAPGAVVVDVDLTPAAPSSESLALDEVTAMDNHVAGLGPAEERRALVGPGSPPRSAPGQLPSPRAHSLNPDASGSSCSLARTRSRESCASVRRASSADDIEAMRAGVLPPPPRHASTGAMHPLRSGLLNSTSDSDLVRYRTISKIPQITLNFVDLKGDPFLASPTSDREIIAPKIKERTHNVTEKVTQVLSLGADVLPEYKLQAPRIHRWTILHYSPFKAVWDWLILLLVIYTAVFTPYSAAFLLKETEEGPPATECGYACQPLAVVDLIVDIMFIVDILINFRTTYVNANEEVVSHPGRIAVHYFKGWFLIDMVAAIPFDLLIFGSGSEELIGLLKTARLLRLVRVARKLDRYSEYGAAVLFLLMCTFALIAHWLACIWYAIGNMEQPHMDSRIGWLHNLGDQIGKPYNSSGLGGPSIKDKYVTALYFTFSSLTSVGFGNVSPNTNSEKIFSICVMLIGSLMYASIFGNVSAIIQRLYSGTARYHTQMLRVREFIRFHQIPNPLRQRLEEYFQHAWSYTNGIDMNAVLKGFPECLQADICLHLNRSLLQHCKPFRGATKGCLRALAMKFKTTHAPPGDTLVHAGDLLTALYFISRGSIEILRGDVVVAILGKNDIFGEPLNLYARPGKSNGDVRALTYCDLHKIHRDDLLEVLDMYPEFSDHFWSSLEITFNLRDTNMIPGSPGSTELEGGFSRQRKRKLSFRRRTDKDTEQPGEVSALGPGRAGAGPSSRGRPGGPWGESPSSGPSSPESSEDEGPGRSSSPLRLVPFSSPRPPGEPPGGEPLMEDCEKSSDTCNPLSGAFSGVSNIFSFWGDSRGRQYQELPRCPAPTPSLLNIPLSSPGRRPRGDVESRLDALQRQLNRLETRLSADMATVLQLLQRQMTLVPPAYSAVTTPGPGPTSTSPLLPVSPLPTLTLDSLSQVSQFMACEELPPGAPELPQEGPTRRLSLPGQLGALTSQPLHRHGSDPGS
Excerpt: as §1

[12] = Human plasma stability; type: in vitro ADME; details: at 6 h
[13] = molecular target: FAK 35 kD kinase domain (Homo sapiens, UniProt Q05397); test: In vitro kinase assay with purified FAK kinase domain; details: FIG. 5
FAK 35 kD kinase domain, sequence (Q05397 422-680 limits assumed): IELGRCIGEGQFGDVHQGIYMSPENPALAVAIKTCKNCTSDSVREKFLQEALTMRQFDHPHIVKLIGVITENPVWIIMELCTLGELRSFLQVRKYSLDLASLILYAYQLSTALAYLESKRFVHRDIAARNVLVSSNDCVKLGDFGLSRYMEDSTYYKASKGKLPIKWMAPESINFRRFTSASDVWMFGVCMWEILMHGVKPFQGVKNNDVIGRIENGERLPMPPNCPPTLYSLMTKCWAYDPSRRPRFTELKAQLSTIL

[14] = tested on: SH-SY5Y human neuronal cells; test: Cytotoxicity in SH-SY5Y cells; type: cell-based
[15] = B/P ratio and blood-brain barrier crossing; type: in vivo; details: for blood-brain barrier crossing (in words): in vivo
[16] = tested on: mice; details: mouse, in vivo
[17] = log D determination; type: physicochemical; details: pH 7.4
Excerpt: as §1

[18] = molecular target: CYP 2D6 (Homo sapiens, UniProt P10635); test: CYP 2D6 inhibition; type: in vitro ADME
CYP 2D6, sequence (P10635 whole entry): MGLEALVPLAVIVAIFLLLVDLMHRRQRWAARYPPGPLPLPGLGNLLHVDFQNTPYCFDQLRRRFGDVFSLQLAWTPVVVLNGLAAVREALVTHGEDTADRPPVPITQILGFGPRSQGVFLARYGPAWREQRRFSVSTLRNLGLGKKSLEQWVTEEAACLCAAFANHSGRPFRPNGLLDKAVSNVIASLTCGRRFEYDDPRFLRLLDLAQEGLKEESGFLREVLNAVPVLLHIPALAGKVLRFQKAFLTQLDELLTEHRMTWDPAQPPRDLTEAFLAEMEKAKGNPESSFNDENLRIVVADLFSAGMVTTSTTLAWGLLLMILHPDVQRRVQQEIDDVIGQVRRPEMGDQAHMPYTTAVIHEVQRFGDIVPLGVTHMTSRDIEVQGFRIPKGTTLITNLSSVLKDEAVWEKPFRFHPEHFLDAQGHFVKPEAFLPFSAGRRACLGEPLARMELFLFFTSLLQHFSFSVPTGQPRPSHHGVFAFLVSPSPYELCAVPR
Excerpt: as §1

[19] = Solubility; type: physicochemical
Excerpt: as §1

[20] = Mini-Ames
Excerpt: as §1

[21] = tested on: ischemic ileal mucosal ulcers; test: Ischemic ileal ulcer model (acetic-acid-soaked discs on serosa); type: in vivo, mice; details: for ischemic ulcer healing (in words): mice, 40: 30 mg/kg/day by osmotic minipump, 4 days, 30 mg/kg/day
[22] = molecular target: CYP 2C9 (Homo sapiens, UniProt P11712); test: CYP 2C9 inhibition; type: in vitro ADME
Excerpt: as §1

[23] = Plasma protein binding; type: in vitro ADME
Excerpt: as §1

[24] = Cytotoxicity (cells not named); type: cell-based
[25] = tested on: mice; test: Tolerability and toxicity in mice

SMILES: CCCCC(C)(O)C/C=C/[C@H]1[C@H](O)CC(=O)[C@@H]1CCCCCCC(=O)OC (mixture of isomers) [Misoprostol]
serious side effects [1]: 8%

SMILES: COc1ccc(C2CCCN2C(=O)Nc2cc(C(F)(F)F)ccc2N2CCOCC2)cc1 (centres unmarked) [Compound 9]
intestinal mucosal healing in vivo (in words) [2]: stimulated
monolayer wound closure / epithelial sheet migration (in words) [3]: stimulated monolayer wound closure
Src activation (in words) ([4]; intact cells): activating neither
Pyk2 activation (in words) ([5]; intact cells): activating neither
concentration as low as which FAK is activated [6]: 10 nM
FAK activation / FAK-Tyr-397 phosphorylation (in words) [6]: increased FAK-Tyr 397 phosphorylation

SMILES: COc1ccc(C2CCCN2C(=O)CC(NC(N)=O)c2ccccc2Cl)cc1OC (centres unmarked) [Compound 10]
concentration as low as which FAK is activated [6]: 10 nM

SMILES: COc1ccc(CC(C)C(=O)Nc2ccc(N(C)C)cc2C)cc1 (centres unmarked) [Compound 19]
FAK activation / FAK-Tyr-397 phosphorylation (in words) [6]: does not enhance FAK activation

SMILES: O=C(Nc1cc(C(F)(F)F)ccc1N1CCOCC1)N1CCCC1C1CCCCC1 (centres unmarked) [Compound 21]
monolayer wound closure / epithelial sheet migration (in words) [3]: promote the healing of intestinal epithelial wounds in vitro
concentration level of FAK activation (in words) [6]: nanomolar to picomolar levels
FAK activation / FAK-Tyr-397 phosphorylation (in words) [6]: increased; also recorded: stimulate FAK phosphorylation at remarkably low concentrations

SMILES: O=C(Nc1cc(C(F)(F)F)ccc1N1CCOCC1)N1CCCC1c1ccncc1 (centres unmarked) [Compound 24]
oral / enteral absorption (in words) ([7]; po): readily orally
pIC50 [8]: 5.27
half-life ([9]; T1/2): ~1.5 h
Cytotoxicity (LD50) [10]: >1 mM
hERG [11]: hERG = 2.958 μM
Human plasma stability [12]: 98.62% at 6 h
intestinal mucosal healing in vivo (in words) [2]: promoting small bowel mucosal wound healing
concentration of maximal effect in in vitro kinase assay [13]: about 0.3 nM
Cytotoxicity (LD50) [14]: >1 mM
B/P ratio ([15]; 2 h): B/P ratio <0.15
blood-brain barrier crossing (in words) [15]: cross the blood-brain barrier
neurotoxicity (in words) [16]: no neurotoxicity was detected
tolerability / gross toxicity in mice (in words) [16]: without obvious toxicity
log D7.4 [17]: log D7.4 = 3.12
concentration as low as which in vitro wound closure is stimulated [3]: 100 pM
Selectivity against relative off-targets: no Src activation at multiple of FAK activation [4]: activation at >1000 × × FAK activation
pIC50 [18]: 5.00
water solubility / need of DMSO (in words) [19]: required DMSO solubilization; also recorded: somewhat less insoluble
solubility ([19]; PBS buffer, pH 7.4, aqueous buffer): 252 µM
Selectivity against relative off-targets: no Pyk2 activation at multiple of FAK activation [5]: activation at >1000 × × FAK activation
Mini-Ames [20]: negative
ischemic ulcer healing (in words) [21]: accelerated; also recorded: can heal intestinal mucosal ulcers
Mouse therapeutic dose ([21]; × 4 days): <30 mg/kg/day
concentration level of FAK activation (in words) [6]: considerably lower concentration than 45
concentration as low as which FAK is activated ([6]; Caco-2 cells): 0.1 nM
pEC50 ([6]; in vitro, assay not named in Table 4, read-out: FAK potency EC50): > 8.00
FAK activation / FAK-Tyr-397 phosphorylation (in words) [6]: seemed to activate FAK
pIC50 [22]: 5.35
fraction unbound ([23]; plasma): 0.0949

SMILES: O=C(Nc1cc(F)ccc1N1CCOCC1)N1CCCC1c1ccncc1 (centres unmarked) [Compound 25]
FAK activation / FAK-Tyr-397 phosphorylation (in words) [6]: does not impair activity

SMILES: COc1ccc(C(CNC(=O)Nc2cc(C(F)(F)F)ccc2N2CCOCC2)N(C)C)cc1 (centres unmarked) [Compound 31]
FAK activation / FAK-Tyr-397 phosphorylation (in words) [6]: seemed to activate FAK

SMILES: CN(C)C(CNC(=O)Nc1cc(C(F)(F)F)ccc1N1CCOCC1)c1ccncc1 (centres unmarked) [Compound 40]
course of plasma levels after enteral dosing (in words) [7]: decline by two hours
course of plasma levels after enteral dosing (in words) ([7]; 2 h): decrease by 2 hours
plasma level after 240 mg/kg as multiple of therapeutic plasma level ([7]; 1 h): ~6*10^6 ×
cytotoxicity (in words) [24]: no cytotoxicity at 10000× higher than effective doses; also recorded: neither cytotoxic nor carcinogenic
concentration at 4 days ([9]; 1.25 mg/kg): 26 ng/mL
half-life ([9]; T1/2): ~1.5 h
half-life ([9]; plasma half-life): 1.5 h
lethal single dose [25]: 480 mg/kg
Cytotoxicity (LD50) [10]: SYSY (LD50)~1 mM
concentration at which cytotoxicity is displayed ([10]; IMR-90): 1000 µM
cytotoxic concentration as multiple of the 100 pM that activates FAK ([10]; IMR-90): 10^7 ×
hERG ([11]; human): hERG > 30 μM
Human plasma stability [12]: 88.56% at 6 h
Cytotoxicity (LD50) [14]: SYSY (LD50)~1 mM
concentration at which cytotoxicity is displayed [14]: 1000 µM
cytotoxic concentration as multiple of the 100 pM that activates FAK [14]: 10^7 ×
blood-brain barrier crossing (in words) [15]: cross the blood-brain barrier
neurotoxicity (in words) [16]: no neurotoxicity was detected
renal/hepatic histology, creatinine, ALT (in words) [16]: normal
serum chemistries (in words) ([16]; 120 mg/kg): normal
log D7.4 [17]: log D7.4 = 2.87
wound closure after two 2-hour exposures vs full 24 hours of exposure ([3]; 100 nM): equivalent stimulation of wound closure
wound closure at 24 hours after three-hour exposure vs 24 hours exposure ([3]; 100 nM, medium changed back after exposure): same effect as 24 hours
wound closure with proliferation blocked by hydroxyurea (in words) ([3]; hydroxyurea present): still stimulates Caco-2 monolayer wound closure
monolayer wound closure / epithelial sheet migration (in words) [3]: stimulates wound closure; also recorded: promotes epithelial monolayer wound healing; also recorded: dose-responsive stimulation
Src activation (in words) ([4]; at 10 μM): does not activate
water solubility / need of DMSO (in words) [19]: does not require DMSO; also recorded: truly water soluble
Pyk2 activation (in words) ([5]; at 10 μM): does not activate
Mini-Ames [20]: negative
ischemic ulcer healing (in words) [21]: much smaller ulcers; also recorded: acceleration of healing
Plasma protein binding [23]: 91.39%

SMILES: CCN(C(=O)Nc1ccccc1N1CCOCC1)C(C)c1ccccc1 (centres unmarked) [Compound 48]
FAK-Tyr-397/FAK fold change [6]: 1.1 fold change
FAK activation / FAK-Tyr-397 phosphorylation (in words) [6]: did not induce FAK phosphorylation

The remaining lines, values ahead:

FAK-Tyr-397/FAK fold change [6]: 1.0 fold change
FAK activation / FAK-Tyr-397 phosphorylation (in words) [6]: reduced activation
SMILES: O=C(Nc1cc(C(F)(F)F)ccc1C1CCOCC1)N1CCCC1c1ccccc1 (centres unmarked) [Compound 14]

FAK activation / FAK-Tyr-397 phosphorylation (in words) [6]: seemed to activate FAK
SMILES: O=C(Nc1cc(C(F)(F)F)ccc1N1CCOCC1)N1CCCC1C1CCCCC1 (centres unmarked) [Compound 36]

FAK activation / FAK-Tyr-397 phosphorylation (in words) [6]: seemed to activate FAK
SMILES: O=C(Nc1cc(C(F)(F)F)ccc1N1CCOCC1)N1CCCC1c1ccccc1 (centres unmarked) [Compound 37]

FAK-Tyr-397/FAK fold change [6]: 1.1 fold change
FAK activation / FAK-Tyr-397 phosphorylation (in words) [6]: did not induce FAK phosphorylation
SMILES: O=C(Nc1ccccc1N1CCOCC1)N1CCCC1c1ccncc1 (centres unmarked) [Compound 46]

FAK-Tyr-397/FAK fold change [6]: 1.1 fold change
SMILES: O=C(Nc1cc(C(F)(F)F)ccc1N1CCOCC1)N1CCCC1c1ccc(O)cc1 (centres unmarked) [Compound 49]

Reference: US20240024333A1, “USE OF SMALL MOLECULE FAK ACTIVATORS TO PROMOTE MUCOSAL HEALING” (Regents of the University of Minnesota, priority 2020, published 2024)
